Data from patent US8148373B2, “Compounds” (AstraZeneca AB, priority 2008, dated 2012).
Where a name gives a salt, the structure may show the parent alone.

Key:
[1] = target: T1, Adrenergic β2 (H292 cells) (Homo sapiens, UniProt P07550); assay: Assay for Adrenergic β2 Mediated cAMP Production (concentration response, AlphaScreen cAMP detection); assay type: cell-based; details: for EC50: cAMP production, 60 minutes at room temperature, 300 μM rolipram, read-out: β2 pEC50 (converted); for β2 Intrinsic activity: fraction relative to the maximum activity determined for formoterol
T1 construct: endogenous in cells; host or cells: H292 cells
Summary of the method: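 Intrinsic activity is relative to the per-experiment formoterol maximum, with pEC50 from a four-parameter logistic fit of cAMP levels quantified by AlphaScreen against standards. Cells (H292) got 300 μM rolipram for 10 min, then compound for 60 min at room temperature, 1% DMSO final.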

[2] = target: T2, human muscarinic acetylcholine M3 receptor (M3-ACh) (Homo sapiens, UniProt P20309); assay: Muscarinic 3 Receptor Binding Assay ([3H]NMS competition, SPA); details: [3H]NMS 0.1 nM, CHO-K1 cell membranes, 16 hours at room temperature; read-out: M3 pIC50 (converted)
T2 construct: expressed in transfected cells; host or cells: CHO-K1 (Chinese Hamster Ovary) cell membranes
Summary of the method: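 Competition SPA binding of 0.1 nM [3H]NMS (quarter Kd) to membranes from CHO-K1 cells expressing human M3, in 20 mM HEPES pH 7.4, 5 mM MgCl2, 1% DMSO. Incubated 16 h at room temperature; non-specific binding with 1 µM atropine. pIC50 from 50% reduction of specific binding.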

T1 sequence (P07550 whole entry): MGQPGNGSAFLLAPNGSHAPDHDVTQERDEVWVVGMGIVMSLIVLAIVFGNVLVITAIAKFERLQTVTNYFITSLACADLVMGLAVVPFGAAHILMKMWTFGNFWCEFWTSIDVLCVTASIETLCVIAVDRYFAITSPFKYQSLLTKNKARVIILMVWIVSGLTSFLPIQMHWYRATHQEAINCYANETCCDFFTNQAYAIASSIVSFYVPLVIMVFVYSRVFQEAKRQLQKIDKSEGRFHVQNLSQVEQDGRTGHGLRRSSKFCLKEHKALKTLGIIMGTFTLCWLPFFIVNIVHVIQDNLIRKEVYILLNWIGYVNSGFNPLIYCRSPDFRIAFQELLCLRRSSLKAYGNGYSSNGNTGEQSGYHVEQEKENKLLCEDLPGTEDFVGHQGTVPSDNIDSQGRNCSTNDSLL
T2 sequence (P20309 whole entry): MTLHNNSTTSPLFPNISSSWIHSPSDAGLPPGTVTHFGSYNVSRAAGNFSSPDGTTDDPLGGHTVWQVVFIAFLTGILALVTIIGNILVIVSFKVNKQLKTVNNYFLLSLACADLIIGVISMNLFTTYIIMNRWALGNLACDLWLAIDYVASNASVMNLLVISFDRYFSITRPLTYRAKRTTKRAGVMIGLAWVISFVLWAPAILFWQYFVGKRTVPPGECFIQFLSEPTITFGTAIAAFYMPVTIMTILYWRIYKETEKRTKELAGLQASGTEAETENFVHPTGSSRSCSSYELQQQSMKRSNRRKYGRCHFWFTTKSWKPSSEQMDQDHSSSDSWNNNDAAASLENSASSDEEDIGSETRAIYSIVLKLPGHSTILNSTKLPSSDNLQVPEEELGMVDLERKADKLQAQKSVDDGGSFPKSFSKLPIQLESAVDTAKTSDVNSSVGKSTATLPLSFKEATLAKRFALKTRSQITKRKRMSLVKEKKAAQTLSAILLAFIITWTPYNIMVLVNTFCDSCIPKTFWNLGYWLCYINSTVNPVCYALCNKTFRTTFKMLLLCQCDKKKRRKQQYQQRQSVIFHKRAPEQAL

SMILES	EC50 [1] [nM]	β2 Intrinsic activity [1]	IC50 [2] [nM]
CC(C)c1nc(C(=O)N2CCOC3(CCN(CCCCCCCC(C)(C)CNC[C@H](O)c4ccc(O)c5[nH]c(=O)sc45)CC3)C2)cs1 [Example 103, (R)-4-Hydroxy-7-(1-hydroxy-2-(9-(4-(2-isopropylthiazole-4-carbonyl)-1-oxa-4,9-diazaspiro[5.5]undecan-9-yl)-2,2-dimethylnonylamino)ethyl)benzo[d]thiazol-2(3H)-one formate]	251	1	1
Cc1cc(C(=O)N2CCOC3(CCN(CCOc4ccc(CNC[C@H](O)c5ccc(O)c6[nH]c(=O)sc56)cc4)CC3)C2)cs1 [Example 104, (R)-4-Hydroxy-7-(1-hydroxy-2-(4-(2-(4-(5-methylthiophene-3-carbonyl)-1-oxa-4,9-diazaspiro[5.5]undecan-9-yl)ethoxy)benzylamino)ethyl)benzo[d]thiazol-2(3H)-one formate]	79.4	0.9	3.16
Cc1cc(C(=O)N2CCOC3(CCN(CCCCCCCCCNC[C@H](O)c4ccc(O)c5[nH]c(=O)sc45)CC3)C2)cs1 [Example 105, (R)-4-Hydroxy-7-(1-hydroxy-2-(9-(4-(5-methylthiophene-3-carbonyl)-1-oxa-4,9-diazaspiro[5.5]undecan-9-yl)nonylamino)ethyl)benzo[d]thiazol-2(3H)-one formate]	15.8	0.8	0.126
O=C(c1nc2ccccc2s1)N1CCOC2(CCN(CCOc3ccc(CNC[C@H](O)c4ccc(O)c5[nH]c(=O)sc45)cc3)CC2)C1 [Example 106, (R)-7-(2-(4-(2-(4-(Benzo[d]thiazole-2-carbonyl)-1-oxa-4,9-diazaspiro[5.5]undecan-9-yl)ethoxy)benzylamino)-1-hydroxyethyl)-4-hydroxybenzo[d]thiazol-2(3H)-one formate]	100	0.8	200
O=C(c1nc2ccccc2s1)N1CCOC2(CCN(CCCCCCCCCNC[C@H](O)c3ccc(O)c4[nH]c(=O)sc34)CC2)C1 [Example 107, (R)-7-(2-(9-(4-(Benzo[d]thiazole-2-carbonyl)-1-oxa-4,9-diazaspiro[5.5]undecan-9-yl)nonylamino)-1-hydroxyethyl)-4-hydroxybenzo[d]thiazol-2(3H)-one formate]	39.8	0.9	6.31
CC(C)c1nc(C(=O)N2CCOC3(CCN(CCOc4ccc(CNC[C@H](O)c5ccc(O)c6[nH]c(=O)sc56)cc4)CC3)C2)cs1 [Example 108, (R)-4-Hydroxy-7-(1-hydroxy-2-(4-(2-(4-(2-isopropylthiazole-4-carbonyl)-1-oxa-4,9-diazaspiro[5.5]undecan-9-yl)ethoxy)benzylamino)ethyl)benzo[d]thiazol-2(3H)-one formate]	126	0.9	3.98
CC(C)c1nc(C(=O)N2CCOC3(CCN(CCCCCCCCCNC[C@H](O)c4ccc(O)c5[nH]c(=O)sc45)CC3)C2)cs1 [Example 109, (R)-4-Hydroxy-7-(1-hydroxy-2-(9-(4-(2-isopropylthiazole-4-carbonyl)-1-oxa-4,9-diazaspiro[5.5]undecan-9-yl)nonylamino)ethyl)benzo[d]thiazol-2(3H)-one formate]	7.94	0.9	0.2
Cc1ccc(C(=O)N2CCOC3(CCN(CCOc4ccc(CNC[C@H](O)c5ccc(O)c6[nH]c(=O)sc56)cc4)CC3)C2)s1 [Example 110, (R)-4-Hydroxy-7-(1-hydroxy-2-(4-(2-(4-(5-methylthiophene-2-carbonyl)-1-oxa-4,9-diazaspiro[5.5]undecan-9-yl)ethoxy)benzylamino)ethyl)benzo[d]thiazol-2(3H)-one formate]	63.1	0.8	20
Cc1ccc(C(=O)N2CCOC3(CCN(CCCCCCCCCNC[C@H](O)c4ccc(O)c5[nH]c(=O)sc45)CC3)C2)s1 [Example 111, (R)-4-Hydroxy-7-(1-hydroxy-2-(9-(4-(5-methylthiophene-2-carbonyl)-1-oxa-4,9-diazaspiro[5.5]undecan-9-yl)nonylamino)ethyl)benzo[d]thiazol-2(3H)-one formate]	31.6	0.8	0.794
O=C(c1csc(-c2ccccc2)n1)N1CCOC2(CCN(CCOc3ccc(CNC[C@H](O)c4ccc(O)c5[nH]c(=O)sc45)cc3)CC2)C1 [Example 112, (R)-4-Hydroxy-7-(1-hydroxy-2-(4-(2-(4-(2-phenylthiazole-4-carbonyl)-1-oxa-4,9-diazaspiro[5.5]undecan-9-yl)ethoxy)benzylamino)ethyl)benzo[d]thiazol-2(3H)-one ditrifluoroacetate]	126	0.9	501
O=C(c1csc(-c2ccccc2)n1)N1CCOC2(CCN(CCCCCCCCCNC[C@H](O)c3ccc(O)c4[nH]c(=O)sc34)CC2)C1 [Example 113, (R)-4-Hydroxy-7-(1-hydroxy-2-(9-(4-(2-phenylthiazole-4-carbonyl)-1-oxa-4,9-diazaspiro[5.5]undecan-9-yl)nonylamino)ethyl)benzo[d]thiazol-2(3H)-one formate]	20	0.8	20
CC(C)c1ncc(C(=O)N2CCOC3(CCN(CCOc4ccc(CNC[C@H](O)c5ccc(O)c6[nH]c(=O)sc56)cc4)CC3)C2)s1 [Example 114, (R)-4-Hydroxy-7-(1-hydroxy-2-(4-(2-(4-(2-isopropylthiazole-5-carbonyl)-1-oxa-4,9-diazaspiro[5.5]undecan-9-yl)ethoxy)benzylamino)ethyl)benzo[d]thiazol-2(3H)-one ditrifluoracetate]	63.1	0.9	316
CC(C)c1ncc(C(=O)N2CCOC3(CCN(CCCCCCCCCNC[C@H](O)c4ccc(O)c5[nH]c(=O)sc45)CC3)C2)s1 [Example 115, (R)-4-Hydroxy-7-(1-hydroxy-2-(9-(4-(2-isopropylthiazole-5-carbonyl)-1-oxa-4,9-diazaspiro[5.5]undecan-9-yl)nonylamino)ethyl)benzo[d]thiazol-2(3H)-one formate]	6.31	0.8	7.94
CC(C)c1cc(C(=O)N2CCOC3(CCN(Cc4cc(CCNC[C@H](O)c5ccc(O)c6[nH]c(=O)sc56)cs4)CC3)C2)cs1 [Example 264, (R)-4-Hydroxy-7-(1-hydroxy-2-(2-(5-((4-(5-isopropylthiophene-3-carbonyl)-1-oxa-4,9-diazaspiro[5.5]undecan-9-yl)methyl)thiophen-3-yl)ethylamino)ethyl)benzo[d]thiazol-2(3H)-one ditrifluoroacetate]	20	1	7.94
CCC(CC)c1nc(C(=O)N2CCOC3(CCN(Cc4cccc(CCNC[C@H](O)c5ccc(O)c6[nH]c(=O)sc56)c4)CC3)C2)cs1 [Example 265, (R)-4-Hydroxy-7-(1-hydroxy-2-(3-((4-(2-(pentan-3-yl)thiazole-4-carbonyl)-1-oxa-4,9-diazaspiro[5.5]undecan-9-yl)methyl)phenethylamino)ethyl)benzo[d]thiazol-2(3H)-one ditrifluoroacetate]	12.6	1	0.794
O=C(c1ccc2occc2c1)N1CCOC2(CCN(Cc3cccc(CCNC[C@H](O)c4ccc(O)c5[nH]c(=O)sc45)c3)CC2)C1 [Example 266, (R)-7-(2-(3-((4-(Benzofuran-5-carbonyl)-1-oxa-4,9-diazaspiro[5.5]undecan-9-yl)methyl)phenethylamino)-1-hydroxyethyl)-4-hydroxybenzo[d]thiazol-2(3H)-one ditrifluoroacetic acid]	7.94	0.7	0.316
CCCc1cc(C(=O)N2CCOC3(CCN(Cc4cccc(CCNC[C@H](O)c5ccc(O)c6[nH]c(=O)sc56)c4)CC3)C2)cs1 [Example 267, (R)-4-Hydroxy-7-(1-hydroxy-2-(3-((4-(5-propylthiophene-3-carbonyl)-1-oxa-4,9-diazaspiro[5.5]undecan-9-yl)methyl)phenethylamino)ethyl)benzo[d]thiazol-2(3H)-one ditrifluoroacetate]	10	0.9	1.58
CC(C)c1ccc(C(=O)N2CCOC3(CCN(Cc4cccc(CCNC[C@H](O)c5ccc(O)c6[nH]c(=O)sc56)c4)CC3)C2)s1 [Example 268, (R)-4-Hydroxy-7-(1-hydroxy-2-(3-((4-(5-isopropylthiophene-2-carbonyl)-1-oxa-4,9-diazaspiro[5.5]undecan-9-yl)methyl)phenethylamino)ethyl)benzo[d]thiazol-2(3H)-one ditrifluoroacetate]	10	1	1.58
CC(C)c1nc(C(=O)N2CCOC3(CCN(CCOc4ccc(CCNC[C@H](O)c5ccc(O)c6[nH]c(=O)sc56)c(F)c4F)CC3)C2)cs1 [Example 269, (R)-7-(2-(2,3-Difluoro-4-(2-(4-(2-isopropylthiazole-4-carbonyl)-1-oxa-4,9-diazaspiro[5.5]undecan-9-yl)ethoxy)phenethylamino)-1-hydroxyethyl)-4-hydroxybenzo[d]thiazol-2(3H)-one ditrifluoroacetate]	31.6	1.1	6.31
